Experimental data taken from PubChem BioAssay AID2060609 (Molecular Pharmacology Branch, DTP, NCI, 2025).
Several values for one entry are separate records, joined by “and”; a condition that tells them apart may be missing. Identical values can stand only once.

System: 855422-203-R-J1-PDC complex spheroids, viability
Test: Anticancer human tumor 855422-203-R-J1-PDC patient-derived bladder carcinoma cell line growth inhibition [CLK]
Conditions: for viability, T/C: stronger effect = lower value
Summary of the method: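 Multi-cell-type spheroids combined patient-derived tumor cells with HUVEC endothelial cells and human mesenchymal stem cells. Paired agents were dosed in half-log steps down from about clinical Cmax, or from 10 microM where Cmax was unknown.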

[1] = curve of first compound, second compound 0.0316 µM
[2] = curve of first compound, second compound 0.1 µM
[3] = curve of first compound, second compound 0.316 µM
[4] = curve of first compound, second compound 1 µM
[5] = curve of first compound, second compound 3.16 µM
[6] = curve of first compound, second compound 10 µM
[7] = second compound 0.0316 µM, first compound 0.0316 µM
[8] = second compound 0.0316 µM, first compound 0.1 µM
[9] = second compound 0.0316 µM, first compound 0.316 µM
[10] = second compound 0.0316 µM, first compound 1 µM
[11] = second compound 0.0316 µM, first compound 3.16 µM
[12] = second compound 0.0316 µM, first compound 10 µM
[13] = second compound 0.1 µM, first compound 0.0316 µM
[14] = second compound 0.1 µM, first compound 0.1 µM
[15] = second compound 0.1 µM, first compound 0.316 µM
[16] = second compound 0.1 µM, first compound 1 µM
[17] = second compound 0.1 µM, first compound 3.16 µM
[18] = second compound 0.1 µM, first compound 10 µM
[19] = second compound 0.316 µM, first compound 0.0316 µM
[20] = second compound 0.316 µM, first compound 0.1 µM
[21] = second compound 0.316 µM, first compound 0.316 µM
[22] = second compound 0.316 µM, first compound 1 µM
[23] = second compound 0.316 µM, first compound 3.16 µM
[24] = second compound 0.316 µM, first compound 10 µM
[25] = second compound 1 µM, first compound 0.0316 µM
[26] = second compound 1 µM, first compound 0.1 µM
[27] = second compound 1 µM, first compound 0.316 µM
[28] = second compound 1 µM, first compound 1 µM
[29] = second compound 1 µM, first compound 3.16 µM
[30] = second compound 1 µM, first compound 10 µM
[31] = second compound 3.16 µM, first compound 0.0316 µM
[32] = second compound 3.16 µM, first compound 0.1 µM
[33] = second compound 3.16 µM, first compound 0.316 µM
[34] = second compound 3.16 µM, first compound 1 µM
[35] = second compound 3.16 µM, first compound 3.16 µM
[36] = second compound 3.16 µM, first compound 10 µM
[37] = second compound 10 µM, first compound 0.0316 µM
[38] = second compound 10 µM, first compound 0.1 µM
[39] = second compound 10 µM, first compound 0.316 µM
[40] = second compound 10 µM, first compound 1 µM
[41] = second compound 10 µM, first compound 3.16 µM
[42] = second compound 10 µM, first compound 10 µM
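Note: spheroids exposed to drugs for seven days before readout.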
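Throughout, for viability, T/C: 100% = DMSO vehicle control wells.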

SMILES: Nc1ccn(C2OC(CO)C(O)C2(F)F)c(=O)n1 (centres undefined) + CNC(=O)c1ccc(Nc2nc(OC3CCCC3)c3c(-c4ccc5nc(C)oc5c4)c[nH]c3n2)c(OC)c1
- IC50 [1]: < 31.6 nM
- IC50 [2]: < 31.6 nM
- IC50 [3]: < 31.6 nM
- IC50 [4]: < 31.6 nM
- IC50 [5]: < 31.6 nM
- IC50 [6]: < 31.6 nM
- viability, T/C [7]: 26.9%
- viability, T/C [8]: 13.1%
- viability, T/C [9]: 13%
- viability, T/C [10]: 8.48%
- viability, T/C [11]: 8.78%
- viability, T/C [12]: 6.08%
- viability, T/C [13]: 17.3%
- viability, T/C [14]: 12.1%
- viability, T/C [15]: 12.5%
- viability, T/C [16]: 11.8%
- viability, T/C [17]: 7.27%
- viability, T/C [18]: 5.69%
- viability, T/C [19]: 17.4%
- viability, T/C [20]: 12.8%
- viability, T/C [21]: 12%
- viability, T/C [22]: 10.3%
- viability, T/C [23]: 5.76%
- viability, T/C [24]: 5.3%
- viability, T/C [25]: 18.6%
- viability, T/C [26]: 21.8%
- viability, T/C [27]: 12.8%
- viability, T/C [28]: 10.1%
- viability, T/C [29]: 9.02%
- viability, T/C [30]: 6.99%
- viability, T/C [31]: 19.4%
- viability, T/C [32]: 16.6%
- viability, T/C [33]: 14.9%
- viability, T/C [34]: 10.2%
- viability, T/C [35]: 8.27%
- viability, T/C [36]: 6.69%
- viability, T/C [37]: 19.3%
- viability, T/C [38]: 16.4%
- viability, T/C [39]: 14.1%
- viability, T/C [40]: 9.84%
- viability, T/C [41]: 10.5%
- viability, T/C [42]: 5.99%

SMILES: CC1(C)CCC(CN2CCN(c3ccc(C(=O)NS(=O)(=O)c4ccc(NCC5CCOCC5)c([N+](=O)[O-])c4)c(Oc4cnc5[nH]ccc5c4)c3)CC2)=C(c2ccc(Cl)cc2)C1 + CN1CCN(c2cc(C(=O)Nc3cc4cc(-c5cnn(C)c5)ccc4cn3)ccn2)CC1
- IC50 [1]: 6060 nM
- IC50 [2]: 5320 nM
- IC50 [3]: < 31.6 nM
- IC50 [4]: < 31.6 nM
- IC50 [5]: < 31.6 nM
- IC50 [6]: < 31.6 nM
- viability, T/C [7]: 97.3%
- viability, T/C [8]: 96.2%
- viability, T/C [9]: 115%
- viability, T/C [10]: 116%
- viability, T/C [11]: 137%
- viability, T/C [12]: 1.97%
- viability, T/C [13]: 85.1%
- viability, T/C [14]: 81.9%
- viability, T/C [15]: 104%
- viability, T/C [16]: 88.2%
- viability, T/C [17]: 93%
- viability, T/C [18]: 1.08%
- viability, T/C [19]: 10.7%
- viability, T/C [20]: 11.8%
- viability, T/C [21]: 8.68%
- viability, T/C [22]: 10.2%
- viability, T/C [23]: 10.3%
- viability, T/C [24]: 0.47%
- viability, T/C [25]: 0.26%
- viability, T/C [26]: 0.89%
- viability, T/C [27]: 0.24%
- viability, T/C [28]: 0.46%
- viability, T/C [29]: 0.51%
- viability, T/C [30]: 0.11%
- viability, T/C [31]: 0.63%
- viability, T/C [32]: 2.77%
- viability, T/C [33]: 0.71%
- viability, T/C [34]: 0.87%
- viability, T/C [35]: 1.82%
- viability, T/C [36]: 1.58%
- viability, T/C [37]: 0.52%
- viability, T/C [38]: 0.31%
- viability, T/C [39]: 0.36%
- viability, T/C [40]: 0.45%
- viability, T/C [41]: 0.29%
- viability, T/C [42]: 0.25%

SMILES: O=c1[nH]cc(F)c(=O)[nH]1 + CN1CCN(c2cc(C(=O)Nc3cc4cc(-c5cnn(C)c5)ccc4cn3)ccn2)CC1
- IC50 [1]: 3800 nM
- IC50 [2]: 3350 nM
- IC50 [3]: < 31.6 nM
- IC50 [4]: < 31.6 nM
- IC50 [5]: < 31.6 nM
- IC50 [6]: < 31.6 nM
- viability, T/C [7]: 109%
- viability, T/C [8]: 102%
- viability, T/C [9]: 96.8%
- viability, T/C [10]: 64.4%
- viability, T/C [11]: 56.9%
- viability, T/C [12]: 41.1%
- viability, T/C [13]: 82.2%
- viability, T/C [14]: 90.6%
- viability, T/C [15]: 85.6%
- viability, T/C [16]: 68.1%
- viability, T/C [17]: 52.4%
- viability, T/C [18]: 39.7%
- viability, T/C [19]: 10.1%
- viability, T/C [20]: 12.3%
- viability, T/C [21]: 9.14%
- viability, T/C [22]: 11.6%
- viability, T/C [23]: 14.1%
- viability, T/C [24]: 6.87%
- viability, T/C [25]: 0.14%
- viability, T/C [26]: 0.18%
- viability, T/C [27]: 0.21%
- viability, T/C [28]: 0.12%
- viability, T/C [29]: 0.19%
- viability, T/C [30]: 0.15%
- viability, T/C [31]: 0.72%
- viability, T/C [32]: 0.53%
- viability, T/C [33]: 0.97%
- viability, T/C [34]: 0.5%
- viability, T/C [35]: 1.23%
- viability, T/C [36]: 0.45%
- viability, T/C [37]: 0.21%
- viability, T/C [38]: 0.23%
- viability, T/C [39]: 0.37%
- viability, T/C [40]: 0.21%
- viability, T/C [41]: 0.32%
- viability, T/C [42]: 0.2%

SMILES: Nc1ccccc1NC(=O)c1ccc(CNC(=O)OCc2cccnc2)cc1
- viability, T/C (compound 0.0316 µM): 81.5% and 97.5%
- viability, T/C (compound 0.1 µM): 72.8% and 73.2%
- viability, T/C (compound 0.316 µM): 75.6% and 75%
- viability, T/C (compound 1 µM): 60.6% and 54.4%
- viability, T/C (compound 3.16 µM): 21.2% and 28.1%
- viability, T/C (compound 10 µM): 2.46% and 1.54%
- IC50 (curve of compound): 1360 nM and 1140 nM

SMILES: CC(C)CC(NC(=O)C(Cc1ccccc1)NC(=O)c1cnccn1)B(O)O (centres undefined)
- viability, T/C (compound 0.000949 µM): 2.8% and 2.47%
- viability, T/C (compound 0.003 µM): 0.77% and 0.18%
- viability, T/C (compound 0.00949 µM): 0.19% and 0.16%
- viability, T/C (compound 0.03 µM): 0.36% and 0.17%
- viability, T/C (compound 0.0949 µM): 0.46% and 0.15%
- viability, T/C (compound 0.3 µM): 0.24% and 0.15%
- IC50 (curve of compound): < 0.949 nM

SMILES: CC(CO)NC(=O)c1cc(-c2ccc(Cl)cc2)nn(-c2cnn(C)c2)c1=O (centres undefined) + CNC(=O)c1ccc(Nc2nc(OC3CCCC3)c3c(-c4ccc5nc(C)oc5c4)c[nH]c3n2)c(OC)c1
- IC50 [1]: > 10000 nM
- IC50 [2]: 3540 nM
- IC50 [3]: < 31.6 nM
- IC50 [4]: < 31.6 nM
- IC50 [5]: < 31.6 nM
- IC50 [6]: < 31.6 nM
- viability, T/C [7]: 99%
- viability, T/C [8]: 78.6%
- viability, T/C [9]: 87.3%
- viability, T/C [10]: 95%
- viability, T/C [11]: 96%
- viability, T/C [12]: 80.9%
- viability, T/C [13]: 50.1%
- viability, T/C [14]: 50.6%
- viability, T/C [15]: 55%
- viability, T/C [16]: 63%
- viability, T/C [17]: 46%
- viability, T/C [18]: 42.5%
- viability, T/C [19]: 23%
- viability, T/C [20]: 21.9%
- viability, T/C [21]: 22.9%
- viability, T/C [22]: 22.4%
- viability, T/C [23]: 20.8%
- viability, T/C [24]: 21.8%
- viability, T/C [25]: 18.8%
- viability, T/C [26]: 19.7%
- viability, T/C [27]: 19.8%
- viability, T/C [28]: 20.7%
- viability, T/C [29]: 20.5%
- viability, T/C [30]: 21%
- viability, T/C [31]: 24.3%
- viability, T/C [32]: 20.9%
- viability, T/C [33]: 22.7%
- viability, T/C [34]: 22.2%
- viability, T/C [35]: 22.3%
- viability, T/C [36]: 20%
- viability, T/C [37]: 16.7%
- viability, T/C [38]: 21.2%
- viability, T/C [39]: 22.2%
- viability, T/C [40]: 20.5%
- viability, T/C [41]: 19.9%
- viability, T/C [42]: 20%

SMILES: C=CC(=O)N1CCN(c2nc(=O)n(-c3c(C)ccnc3C(C)C)c3nc(-c4c(O)cccc4F)c(F)cc23)C(C)C1 (centres undefined)
- viability, T/C (compound 0.0316 µM): 91.5% and 117%
- viability, T/C (compound 0.1 µM): 95.7% and 105%
- viability, T/C (compound 0.316 µM): 121% and 122%
- viability, T/C (compound 1 µM): 131% and 149%
- viability, T/C (compound 3.16 µM): 174% and 201%
- viability, T/C (compound 10 µM): 161% and 180%
- IC50 (curve of compound): > 10000 nM
